Measured values reported in ChEMBL document CHEMBL3872237, “Nitric oxide-donating derivatives of hederacolchiside A1: Synthesis and biological evaluation in vitro and in vivo as potential anticancer agents” (Bioorg Med Chem Lett, 2017).

How the values were obtained:
[1] = Induction of NO release in DMSO incubated up to 6 hrs by Griess assay; format: physicochemical
[2] = Growth inhibition of human SMMC7721 cells after 48 hrs by MTT assay; format: functional, cell-based; settings: SMMC-7721, 48 h
[3] = Growth inhibition of human NCI-H460 cells after 48 hrs by MTT assay; format: functional, cell-based; settings: NCI-H460, 48 h
[4] = Growth inhibition of human U251 cells after 48 hrs by MTT assay; format: functional, cell-based; settings: U-251, 48 h
[5] = Growth inhibition of human HCT116 cells after 48 hrs by MTT assay; format: functional, cell-based; settings: HCT-116, 48 h
[6] = Haemolytic activity in New Zealand rabbit erythrocytes after 60 mins; format: ADME, cell-based, Oryctolagus cuniculus, Erythrocyte; settings: read-out: HD50
[7] = Solubility of the compound; format: physicochemical
Mus musculus [8] = test: Acute toxicity in mouse assessed as death at <8 mg/kg measured up to 1 hr; format: organism-based; settings: in vivo
[9] = Antitumor activity against mouse H22 cells xenografted in nude Kunming mouse assessed as tumor growth inhibition at 6 mg/kg/3 days for 5 times administered iv measured 24 hrs post last dose relative to control; format: functional; settings: read-out: TGI
[10] = Antiproliferative activity against human SMMC7721 cells after 48 hrs by resazurin reduction assay; format: functional, cell-based; settings: SMMC-7721, 48 h
[11] = Antiproliferative activity against human NCI-H460 cells after 48 hrs by resazurin reduction assay; format: functional, cell-based; settings: NCI-H460, 48 h
[12] = Antiproliferative activity against human U251 cells after 48 hrs by resazurin reduction assay; format: functional, cell-based; settings: U-251, 48 h
[13] = Antiproliferative activity against human HCT116 cells after 48 hrs by resazurin reduction assay; format: functional, cell-based; settings: HCT-116, 48 h
Mus musculus [14] = test: Acute toxicity in mouse assessed as death at >168 mg/kg measured after 14 days; format: organism-based; settings: in vivo, 336 h
[15] = Antitumor activity against mouse H22 cells xenografted in nude Kunming mouse assessed as tumor growth inhibition at 10 mg/kg/day, iv for 14 days measured 24 hrs post last dose relative to control; format: functional; settings: read-out: TGI
[16] = Antitumor activity against mouse H22 cells xenografted in nude Kunming mouse assessed as tumor growth inhibition at 20 mg/kg/day, iv for 14 days measured 24 hrs post last dose relative to control; format: functional; settings: read-out: TGI
Mus musculus [17] = test: Toxicity in nude Kunming mouse xenografted with mouse H22 cells assessed as mouse death at 10 to 20 mg/kg/day, iv for 14 days measured 24 hrs post last dose; format: organism-based; settings: in vivo

Structure (SMILES)	Activity [1]	IC50 [2] [µM]	IC50 [3] [µM]	IC50 [4] [µM]	IC50 [5] [µM]	HC50 at 1 h [6] [µM]	solubility [7]	Activity (Mus musculus [8])	inhibition in vivo at 6 mg/kg [9] [%]	IC50 [10] [µM]	IC50 [11] [µM]	IC50 [12] [µM]	IC50 [13] [µM]	Activity (Mus musculus [14])	inhibition in vivo at 10 mg/kg/day [15] [%]	inhibition in vivo at 20 mg/kg/day [16] [%]	Activity (Mus musculus [17])
O=[N+]([O-])OCC(CO[N+](=O)[O-])O[N+](=O)[O-] [NITROGLYCERIN]	Active																
C[C@@H]1O[C@@H](O[C@H]2C(O[C@H]3CC[C@]4(C)[C@H]5CC=C6[C@@H]7CC(C)(C)CC[C@]7(C(=O)O)CC[C@@]6(C)[C@]5(C)CC[C@H]4C3(C)C)OC[C@H](O[C@@H]3O[C@H](CO)[C@@H](O)[C@H](O)[C@H]3O)[C@@H]2O)[C@H](O)[C@H](O)[C@H]1O (single isomer, unassigned) [HEDERACOLCHISIDE A1]		2.8	3.7	2.2	8.4	6.7	Insoluble	Toxic	47.5	2.2 to 8.4	2.2 to 8.4	2.2 to 8.4	2.2 to 8.4				
C[C@@H]1O[C@@H](O[C@H]2C(O[C@H]3CC[C@]4(C)[C@H]5CC=C6[C@@H]7CC(C)(C)CC[C@]7(C(=O)OCCCCOc7no[n+]([O-])c7S(=O)(=O)c7ccccc7)CC[C@@]6(C)[C@]5(C)CC[C@H]4C3(C)C)OC[C@H](O[C@@H]3O[C@H](CO)[C@@H](O)[C@H](O)[C@H]3O)[C@@H]2O)[C@H](O)[C@H](O)[C@H]1O (single isomer, unassigned)	Active	2.6	3.4	2.1	7.3												
C[C@@H]1O[C@@H](O[C@H]2C(O[C@H]3CC[C@]4(C)[C@H]5CC=C6[C@@H]7CC(C)(C)CC[C@]7(C(=O)OC/C=C/COc7no[n+]([O-])c7S(=O)(=O)c7ccccc7)CC[C@@]6(C)[C@]5(C)CC[C@H]4C3(C)C)OC[C@H](O[C@@H]3O[C@H](CO)[C@@H](O)[C@H](O)[C@H]3O)[C@@H]2O)[C@H](O)[C@H](O)[C@H]1O (single isomer, unassigned)		4.5	6.8	3.1	10.1												
C[C@@H]1O[C@@H](O[C@H]2[C@H](O[C@H]3CC[C@]4(C)[C@H]5CC=C6[C@@H]7CC(C)(C)CC[C@]7(C(=O)OCCCOc7no[n+]([O-])c7S(=O)(=O)c7ccccc7)CC[C@@]6(C)[C@]5(C)CC[C@H]4C3(C)C)OC[C@H](O[C@@H]3O[C@H](CO)[C@@H](O)[C@H](O)[C@H]3O)[C@@H]2O)[C@H](O)[C@H](O)[C@H]1O	Active	1.9	3.1	1.6	6.5	280	Insoluble							Non-Toxic	38.3	51.5	Non-Toxic
CC(CCOc1no[n+]([O-])c1S(=O)(=O)c1ccccc1)OC(=O)[C@]12CCC(C)(C)C[C@H]1C1=CC[C@@H]3[C@@]4(C)CC[C@H](O[C@@H]5OC[C@H](O[C@@H]6O[C@H](CO)[C@@H](O)[C@H](O)[C@H]6O)[C@H](O)[C@H]5O[C@@H]5O[C@@H](C)[C@H](O)[C@@H](O)[C@H]5O)C(C)(C)[C@@H]4CC[C@@]3(C)[C@]1(C)CC2 (some centres not stated)		3.7	6.2	2.3	11.2												
